{
  "source": "patent US9157906B2",
  "about": "“Phosphodiesterase activity and regulation of phosphodiesterase 1B-mediated signaling in brain” (THE ROCKEFELLER UNIVERSITY, priority 2001, dated 2015)",
  "key": {"DARPP-32 at Thr34": {"test_system": "DARPP-32 at Thr34", "assay": "Phosphorylation of DARPP-32 at Thr34 in striatal slices, immunoblot with phosphorylation state-specific antibodies", "type": "cell-based, mouse", "settings": "for increase in levels of phospho-Thr34 DARPP-32 and phospho-Ser845 GluR1: forskolin (10, unit not given)", "protocol": "(§1) Male PDE1B−/− (null) and WT mice (8-12 weeks of age) were decapitated. The brain was transferred rapidly to an ice-cold surface, blocked, and fixed to the cutting surface of a Vibratome (Ted Pella, Redding, Calif.) maintained at 4° C. The brain was submersed in cold, oxygenated (95% O2/5% CO2) Krebs' bicarbonate buffer of the following composition (in mM): 125 NaCl, 5KCl, 26 NaHCO3, 1.5 CaCl2, 1.5 MgSO4, and 10 glucose, pH 7.4. Coronal mouse brain sections (400 μm in thickness) were cut and pooled in cold buffer. Striatal or nucleus accumbens slices were cut from the coronal sections under a dissecting microscope. Individual slices were preincubated in fresh buffer for 15 min at 30° C.; the buffer was replaced, and preincubation continued for an additional 30 min. […] Slices were frozen immediately in liquid nitrogen and stored at −80° C. until assayed.\nFrozen slices were sonicated in homogenization buffer containing 1% SDS. Small aliquots of the homogenate were retained for protein determination by standard assays using bovine serum albumin as the standard. Equal amounts of protein (50 μg) were loaded onto 10% acrylamide gels, separated by SDS/PAGE, and transferred to nitrocellulose membranes by a method described by Tobin et al. (1979. Proc. Natl. Acad. Sci, USA 76:4350-4354). […]\n(§2) Chemiluminescence was detected by autoradiography and bands were quantified by analysis of scanned images using NIH Image 1.52 software. Because the linear range for quantitation of ECL signals by densitometry is limited, several film exposures were obtained for each set of samples to insure that the signals were within a density range that allowed for accurate quantitation. […]"}, "[1]": {"test_system": "GluR1 AMPA receptor at Ser845", "assay": "Phosphorylation of GluR1 AMPA receptor at Ser845 in striatal slices, immunoblot with phosphorylation state-specific antibodies", "type": "cell-based, mouse", "settings": "striatal slices of PDE1B null mice; 10 μM, 10 minutes", "protocol": "as §1\nFrozen slices were sonicated in homogenization buffer containing 1% SDS. […]\nas §2"}, "[2]": {"test_system": "D1-mediated phosphorylation", "assay": "D1-mediated phosphorylation in nucleus accumbens slices", "type": "cell-based, mouse", "settings": "D1 receptor agonist", "protocol": "Male PDE1B−/− (null) and WT mice (8-12 weeks of age) were decapitated. The brain was transferred rapidly to an ice-cold surface, blocked, and fixed to the cutting surface of a Vibratome (Ted Pella, Redding, Calif.) maintained at 4° C. The brain was submersed in cold, oxygenated (95% O2/5% CO2) Krebs' bicarbonate buffer of the following composition (in mM): 125 NaCl, 5KCl, 26 NaHCO3, 1.5 CaCl2, 1.5 MgSO4, and 10 glucose, pH 7.4. Coronal mouse brain sections (400 μm in thickness) were cut and pooled in cold buffer. Striatal or nucleus accumbens slices were cut from the coronal sections under a dissecting microscope. Individual slices were preincubated in fresh buffer for 15 min at 30° C.; the buffer was replaced, and preincubation continued for an additional 30 min. At the end of this second preincubation period the buffer was replaced with Krebs' buffer or buffer containing test substances for 5 min. Slices were frozen immediately in liquid nitrogen and stored at −80° C. until assayed. […]\nas §2"}, "PDE1B null mice": {"test_system": "PDE1B null mice", "assay": "Methamphetamine-stimulated horizontal locomotor activity (Digiscan apparatus)", "settings": "1 mg/kg subcutaneous"}},
  "note": "Counter-ions that a name gives are not always drawn.",
  "data": [
    {"smiles": "C=C[C@@]1(C)CC(=O)[C@]2(O)[C@@]3(C)[C@@H](O)CCC(C)(C)[C@@H]3[C@H](O)[C@H](OC(C)=O)[C@@]2(C)O1", "note": "[Forskolin]", "values": [
      {"measurement": "increase in levels of phospho-Thr34 DARPP-32 and phospho-Ser845 GluR1", "setting": "DARPP-32 at Thr34; striatal slices from PDE1B null mice", "result": 65, "unit": "fold"},
      {"measurement": "increase in levels of phospho-Thr34 DARPP-32 and phospho-Ser845 GluR1", "setting": "DARPP-32 at Thr34; striatal slices from wild-type mice", "result": 21, "unit": "fold"}
    ]},
    {"smiles": "Oc1cc2c(c(Cl)c1O)CCNCC2c1ccccc1", "note": "(stereo not drawn) [SKF81297]", "values": [
      {"measurement": "increase for phospho-Thr34 as compared to controls", "setting": "DARPP-32 at Thr34; striatal slices of PDE1B null mice, 10 μM, 10 minutes", "result": 15, "unit": "fold"},
      {"measurement": "increase for phospho-Ser845 as compared to controls", "setting": "[1]", "result": 13, "unit": "fold"},
      {"measurement": "D1-mediated phosphorylation in PDE1B null mice as compared to wild-type mice", "setting": "[2]", "result": "enhanced"}
    ]},
    {"smiles": "CN[C@@H](C)Cc1ccccc1", "note": "[methamphetamine, d-methamphetamine hydrochloride]", "values": [
      {"measurement": "duration of stimulated hyperactivity response after treatment", "setting": "PDE1B null mice", "result": 90, "unit": "min"}
    ]}
  ]
}
